Reference: ChEMBL document CHEMBL1152753, “BRACO19 analog dimers with improved inhibition of telomerase and hPot 1” (Bioorg Med Chem, 2009)
Calls of active or inactive are those of the source. The calls are words filed in the database; no cut-off is given here.

Key:
[1] = Inhibition of non G-quadruplex [TTAGAG]4 DNA templet extension assessed as ligand-induced polymerase stop products by Taq DNA polymerase stop assay
[2] = target: T1, Protection of telomeres protein 1 (Homo sapiens, UniProt Q9NUX5); test: Inhibition of human 35S-labeled Pot1 binding to human telomeric DNA
T1 sequence (Q9NUX5 whole entry): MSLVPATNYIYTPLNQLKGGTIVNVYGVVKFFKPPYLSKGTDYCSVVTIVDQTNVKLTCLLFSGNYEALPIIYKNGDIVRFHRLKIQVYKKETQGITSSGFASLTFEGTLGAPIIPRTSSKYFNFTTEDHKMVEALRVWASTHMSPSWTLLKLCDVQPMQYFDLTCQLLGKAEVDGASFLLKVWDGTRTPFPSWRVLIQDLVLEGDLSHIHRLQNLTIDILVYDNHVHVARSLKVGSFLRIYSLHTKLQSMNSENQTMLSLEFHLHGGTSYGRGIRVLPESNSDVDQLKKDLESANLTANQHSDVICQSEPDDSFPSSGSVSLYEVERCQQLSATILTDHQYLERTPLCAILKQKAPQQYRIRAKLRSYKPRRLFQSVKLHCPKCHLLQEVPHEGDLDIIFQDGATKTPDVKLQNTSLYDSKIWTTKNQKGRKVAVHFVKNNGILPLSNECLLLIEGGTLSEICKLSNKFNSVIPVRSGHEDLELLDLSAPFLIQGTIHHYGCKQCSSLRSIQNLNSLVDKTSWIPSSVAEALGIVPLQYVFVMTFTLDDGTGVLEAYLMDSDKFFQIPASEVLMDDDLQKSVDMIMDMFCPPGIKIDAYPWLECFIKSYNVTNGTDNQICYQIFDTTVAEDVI

[3] = species: Homo sapiens; test: Stabilization of human telomeric d[5'G3(T2AG3]-3' assessed as change in melting temperature at 25 uM
[4] = species: Homo sapiens; test: Induction of G-quadruplex structure formation in human telomeric d[5'G3(T2AG3]-3' DNA assessed as major positive band at 290 nm at 1 mole ligand concentration by CD spectroscopy
[5] = target: Telomerase reverse transcriptase (Homo sapiens, UniProt O14746); test: Inhibition of human telomerase assessed as unincorporated [alpha32P]dGTP
[6] = (§1) Inhibition of human G-quadruplex [TTAGGG]4 DNA templet extension assessed as increase in ligand-induced polymerase stop products by Taq DNA polymerase stop assay
[7] = species: Homo sapiens; test: Binding affinity to human telomeric d[5'G3(T2AG3]-3' DNA quadruplex assessed as major positive band at 292 nm at 2:1 drug to DNA ratio
[8] = species: Homo sapiens; test: Induction of G-quadruplex structure formation in human telomeric d[5'G3(T2AG3]-3' DNA assessed as major positive band at 295 nm at 2 mole ligand concentration by CD spectroscopy
[9] = species: Homo sapiens; test: as §1
[10] = species: Homo sapiens; test: Binding affinity to human telomeric d[5'G3(T2AG3]-3' DNA quadruplex assessed as major positive band at 292 nm at 1:1 drug to DNA ratio
[11] = species: Homo sapiens; test: Binding affinity to human telomeric d[5'G3(T2AG3]-3' DNA quadruplex assessed as major positive band at 292 nm at >1:1 drug to DNA ratio

Sequence of Telomerase reverse transcriptase (O14746 whole entry): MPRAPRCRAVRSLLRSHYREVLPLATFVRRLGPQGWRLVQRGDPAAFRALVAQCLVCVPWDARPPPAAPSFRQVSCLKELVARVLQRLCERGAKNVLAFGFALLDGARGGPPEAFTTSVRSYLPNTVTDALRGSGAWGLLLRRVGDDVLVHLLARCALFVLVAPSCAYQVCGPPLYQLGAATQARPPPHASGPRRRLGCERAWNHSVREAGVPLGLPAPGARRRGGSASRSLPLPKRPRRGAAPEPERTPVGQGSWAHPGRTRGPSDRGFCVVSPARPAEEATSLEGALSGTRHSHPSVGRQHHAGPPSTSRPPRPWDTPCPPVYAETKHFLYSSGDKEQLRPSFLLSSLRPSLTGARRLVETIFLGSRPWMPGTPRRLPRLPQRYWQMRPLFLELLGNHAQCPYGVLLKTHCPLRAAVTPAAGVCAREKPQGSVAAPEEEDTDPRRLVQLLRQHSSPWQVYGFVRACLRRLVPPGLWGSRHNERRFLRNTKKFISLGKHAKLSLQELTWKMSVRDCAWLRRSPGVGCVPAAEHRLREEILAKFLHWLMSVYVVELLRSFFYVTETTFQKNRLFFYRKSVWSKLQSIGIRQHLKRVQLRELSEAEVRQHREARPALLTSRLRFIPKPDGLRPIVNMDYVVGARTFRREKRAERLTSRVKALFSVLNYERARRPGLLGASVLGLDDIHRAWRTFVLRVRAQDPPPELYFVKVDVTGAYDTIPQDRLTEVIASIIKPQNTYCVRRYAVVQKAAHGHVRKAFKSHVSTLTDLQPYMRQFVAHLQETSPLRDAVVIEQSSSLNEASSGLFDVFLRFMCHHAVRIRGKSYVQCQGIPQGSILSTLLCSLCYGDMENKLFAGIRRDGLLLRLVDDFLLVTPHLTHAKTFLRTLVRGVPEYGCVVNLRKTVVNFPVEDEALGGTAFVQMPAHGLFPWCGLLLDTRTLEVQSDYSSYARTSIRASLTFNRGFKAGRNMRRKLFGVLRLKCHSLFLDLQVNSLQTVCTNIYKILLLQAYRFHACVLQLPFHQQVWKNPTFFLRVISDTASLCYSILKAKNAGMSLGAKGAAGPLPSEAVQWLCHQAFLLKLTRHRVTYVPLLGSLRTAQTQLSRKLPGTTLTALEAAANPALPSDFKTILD

| EC50 [1] | IC50 [2] | ΔTm [3] | Activity [4] | IC50 [5] | EC50 [6] | Activity [1] | Activity [7] | Activity [8] | Activity [9] | Activity [10] | Activity [11] | SMILES |
| --- | --- | --- | --- | --- | --- | --- | --- | --- | --- | --- | --- | --- |
| 4.5 µM | 17 µM | 23 °C | Active | 4 µM | 0.85 µM |  |  |  |  |  |  | O=C(CCN1CCCC1)Nc1ccc2c(NCCCCCCNc3c4ccc(NC(=O)CCN5CCCC5)cc4nc4cc(NC(=O)CCN5CCCC5)ccc34)c3ccc(NC(=O)CCN4CCCC4)cc3nc2c1 |
| 0.36 µM | 11 µM | 28 °C | Active | 7.5 µM | 0.071 µM |  |  |  |  |  |  | O=C(CCN1CCCC1)Nc1ccc2c(NCNCCNCNc3c4ccc(NC(=O)CCN5CCCC5)cc4nc4cc(NC(=O)CCN5CCCC5)ccc34)c3ccc(NC(=O)CCN4CCCC4)cc3nc2c1 |
| 19.1 µM | 63 µM | 18 °C |  | 5.4 µM | 1.8 µM | Dose-dependent effect | Active | Active | Dose-dependent effect |  |  | CN(C)c1ccc(Nc2c3ccc(NC(=O)CCN4CCCC4)cc3nc3cc(NC(=O)CCN4CCCC4)ccc23)cc1 |
| 3.9 µM | 45 µM | 20 °C | Active | 9 µM | 0.2 µM | Dose-dependent effect |  |  | Dose-dependent effect | Active | inactive | O=C(CCN1CCCC1)Nc1ccc2c(NCOCCOCNc3c4ccc(NC(=O)CCN5CCCC5)cc4nc4cc(NC(=O)CCN5CCCC5)ccc34)c3ccc(NC(=O)CCN4CCCC4)cc3nc2c1 |
